≈ marks a conversion by molar mass, not a printed value. Where two headings read alike, the source gives them in different places.

This test deals with Escherichia coli K12. The class given is cell-based.
[1] abbreviates: K12, read-out: Minimum Inhibitory Concentration E. coli K12, M9 media.
Where [2] appears, read: K12, read-out: Minimum Inhibitory Concentration E. coli K12, M9 plus 5 µg/mL PABA.
[3] abbreviates: K12, read-out: Minimum Inhibitory Concentration E. coli K12, M9 plus 20 µg/mL Methionine.

For `COc1cc(NS(=O)(=O)c2ccc(N)cc2)nc(OC)n1` [parent sulfonamide of 19, sulfadimethoxine], the MIC by setting is: under setting [1], 1.6 µM (≈ 0.497 µg/mL); under setting [2], 537 µM; under setting [3], 3.4 µM.

For the molecule `Nc1ccc(S(=O)(=O)c2ccc(N)cc2)cc1` [parent sulfonamide of 21, 4-[(4-aminobenzene)sulfonyl]aniline], the MIC runs as follows: under setting [1], 25 µM (≈ 6.21 µg/mL); under setting [2], greater than 934 µM; under setting [3], 50 µM.

For `Cc1cc(NS(=O)(=O)c2ccc(N)cc2)no1` [parent sulfonamide of 15, sulfamethoxazole], the MIC came to 0.8 µM (≈ 0.203 µg/mL) under setting [1], 263 µM under setting [2] and 1.5 µM under setting [3].

Take `Nc1ccc(S(N)(=O)=O)cc1` [parent sulfonamide of 22, sulfanilamide]: the MIC was 22 µM (≈ 3.79 µg/mL) under setting [1], greater than 934 µM under setting [2] and 58 µM under setting [3].

The values above are taken from publication PMC4969146 (Bioorganic & medicinal chemistry letters, 2016).
